This is an account of results in patent US10730848B2 (priority 2013, dated 2020).

For the assay, the system named is anthrax lethal toxin (LT). The assay is described as follows: cells. It counts as cell-based, murine.
The mark [1] stands for this setting: Mus musculus, RAW264.7, read-out: IC50, inhibition of LT-induced cell death.
[2] abbreviates: Mus musculus, RAW264.7, read-out: IC50 (In uM).

Read-outs that look alike come from different tables or passages of the source.

Usually IC50 stands for the midpoint of a concentration-inhibition curve. Turning to `C#CCN(/N=C/c1ccc(Br)cc1)C(=O)Nc1c(C)cccc1C` [Compound 17, 2-(4-BROMOBENZYLIDENE)-N-(2,6-DIMETHYLPHENYL)-1-(PROP-2-YN-1-YL)HYDRAZINECARBOXAMIDE], the IC50 reads like this: (Mus musculus, RAW264.7) > 12.5 µM; under setting [1], > 12.5 µM.
As for `Cc1cccc(C)c1NC(=O)N/N=C/c1ccc(Br)o1` [Compound 13v, N^1-(5-BROMOFURAN-2-YLMETHYLENE)-N^4-(2,6-DIMETHYLPHENYL)SEMICARBAZONE], the half-inhibitory concentration (IC50) is > 25 µM. The IC50 (Mus musculus, RAW264.7) was > 25 µM.
Turning to `Cc1cccc(C)c1NC(=O)N/N=C/c1ccc(Br)s1` [Compound 13x, N^1-(5-BROMOTHIOPHENE-2-YLMETHYLENE)-N^4-(2,6-DIMETHYLPHENYL)SEMICARBAZONE], the IC50 (Mus musculus, RAW264.7) came to 1.67 µM and the IC50 under setting [1] is 1.7 µM.
Regarding `Cc1cccc(/C=N/NC(=O)Nc2c(C)cccc2C)c1` [Compound 13j, N^1-(3-METHYLBENZYLIDENE)-N^4-(2,6-DIMETHYLPHENYL)SEMICARBAZONE], the concentration for half-maximal inhibition (IC50) by setting is: (Mus musculus, RAW264.7) 13.4 µM; under setting [2], 13.4 µM.
`Cc1cccc(C)c1NC(=O)N/N=C/c1ccncc1` [Compound 13t, N^1-(PYRIDIN-4-YLMETHYLENE)-N^4-(2,6-DIMETHYLPHENYL)SEMICARBAZONE]: where the note is “Mus musculus, RAW264.7”, the IC50 is > 25 µM.
In the case of `COc1cccc(/C=N/NC(=O)Nc2c(C)cccc2C)c1OC` [Compound 13g, N^1-(2,3-DIMETHOXYBENZYLIDENE)-N^4-(2,6-DIMETHYLPHENYL)SEMICARBAZONE], the half-maximal inhibitory concentration (IC50) by setting is: (Mus musculus, RAW264.7) > 25 µM; under setting [2], > 25 µM.
As to `Cc1cccc(C)c1NC(=O)N/N=C/c1cccc(C(F)(F)F)c1Cl` [Compound 13b, N^1-(2-CHLORO-3-TRIFLUOROMETHYLBENZYLIDENE)-N^4-(2,6-DIMETHYLPHENYL)SEMICARBAZONE], the IC50 runs as follows: (Mus musculus, RAW264.7) > 25 µM; under setting [2], > 25 µM.
As for `Cc1cc(C)c(NC(=O)N/N=C/c2ccc(Br)cc2)c(C)c1` [Compound 9b, N^1-(4-BROMOBENZYLIDENE)-N^4-(2,4,6-DIMETHYLPHENYL)SEMICARBAZONE], the “fold less active than 1” value is “approximately 10 fold”. In addition, the half-maximal inhibitory concentration (IC50) (Mus musculus, RAW264.7) came out at 12.6 µM. The IC50 under setting [2] came out at 12.6 µM.
For `Cc1cccc(C)c1NC(=O)N/N=C/c1ccc(NS(C)(=O)=O)cc1` [Compound 13p, N^1-(4-(N-(4-FORMYLPHENYL)METHANESULFONAMIDE)BENZYLIDENE-N^4-(2,6-DIMETHYLPHENYL)SEMICARBAZONE], the IC50 was > 25 µM (Mus musculus, RAW264.7) and > 25 µM under setting [2].
Take `C#CCN(/N=C/c1ccc(N=[N+]=[N-])cc1)C(=O)Nc1c(C)cccc1C` [Compound 28, 2-(4-Azidobenzylidene)-N-(2,6-dimethylphenyl)-1-(prop-2-yn-1-yl)hydrazinecarboxamide]: the “protection of cells from LT (in words)” value is recorded as “did not offer any protection”. The IC50 (Mus musculus, RAW264.7) is > 25 µM.
As to `Cc1cccc(C)c1NC(=O)N/N=C/c1ccccc1F` [Compound 13c, N^1-(2-FLUOROBENZYLIDENE)-N^4-(2,6-DIMETHYLPHENYL)SEMICARBAZONE], the IC50 came to 8.2 µM (Mus musculus, RAW264.7) and 8.23 µM under setting [2].
Consider `Cc1cccc(C)c1NC(=O)N(C)/N=C/c1ccc(Br)cc1` [Compound 16, N^1-2-(4-BROMOBENZYLIDENE)-N^4-(2,6-DIMETHYLPHENYL)1-METHYLHYDRAZINECARBOXAMIDE], for which the IC50 runs as follows: (Mus musculus, RAW264.7) 1.96 µM; under setting [2], 1.96 µM; under setting [1], 2 µM.
As to `Cc1cccc(C)c1NC(=O)NN=Cc1ccccc1` [Compound 12, benzaldehyde N-(2,6-dimethylphenyl)semicarbazone, reference compound], the “protection of cells from LT (in words)” value is “showed almost no activity against LT”. The half-maximal inhibitory concentration (IC50) (Mus musculus, RAW264.7) is > 25 µM.
Consider `Cc1cccc(C)c1NC(=O)N/N=C/c1ccc(F)cc1` [Compound 13e, N^1-(4-FLUOROBENZYLIDENE)-N^4-(2,6-DIMETHYLPHENYL)SEMICARBAZONE], for which the IC50 turned out to be 7 µM (Mus musculus, RAW264.7); 7 µM under setting [2]; 7 µM under setting [1].
